# Literature values, collected in publication PMC9411704, “Assessment of the Carcinogenic Potential of Pretomanid in Transgenic Tg.rasH2 Mice” (International Journal of Toxicology, 2022).
# Set-up: method as in PMID 32130813
# Conditions: 200 mg/day, clinical study NCT02333799; cited from earlier work
smiles,measurement,value
"O=[N+]([O-])c1cn2c(n1)OC[C@@H](OCc1ccc(OC(F)(F)F)cc1)C2 [Pretomanid, (6S)-2-nitro-6-{[4-(trifluoromethoxy)benzyl]oxy}-6,7-dihydro-5H-imidazo[2,1-b][1,3]oxazine]",Human AUC0-24,50900 ng·h/mL
